From patent US10189875B2, “Anti-cancer peptide and use thereof” (ENSOL BIOSCIENCES INC., priority 2015, dated 2019)

What was measured:
[1] = system: 4T1 mouse breast cancer cells; test: Lung metastasis model with 4T1 cells, count of metastatic tumor nodules; type: in vivo, female BALB/c mice; details: FIG. 2; for number of tumor nodules (lung): caudal vein, three times a week for three weeks, autopsy on 21st day, vs negative control
Method: Whether the metastasis of cancer cells was inhibited by the peptide of Example 1 was evaluated experimentally. Specifically, in order to evaluate the inhibitory effect of the peptide of Example 1 on the metastasis of cancer cells, testing was performed using a lung metastasis model with 4T1 mouse breast cancer cells (ATCC CRL-2539, USA). The peptide of Example 1 was injected into the caudal vein of the tail of female BALB/c mice (SPF, SLC/Japan). The test group was divided into three groups according to the administration concentration; low concentration [40/2 g/head], middle concentration [80/2 g/head], and high concentration 1120, ug/headl. The negative control group was treated in the same manner as the test group, with the exception that the peptide of Example 1 was not administered. On the day after first administration, 4T1 cells (1.5×10^4 cells/head) were injected into the mouse tail caudal vein. After 1 hr, the peptide of Example 1 was secondarily administered. The administration of the peptide was performed three times a week (Monday, Wednesday, and Friday) for a total of three weeks ranging from the second administration day to the final administration day. The weight of the mouse was measured two times a week, and an autopsy was performed on the 21st day after the injection of cancer cells. The lung tissue was excised, stained with a Bouin's solution, and fixed, and then the number of metastatic tumor nodules was counted. Also, a group (a normal group), treated in the same manner as the test group, was prepared as a control group, with the exception that neither the peptide of Example 1 nor 4T1 cells were added. The graph of FIG. 2 is plotted with an x-axis for each group and a y-axis for the number of tumor nodules. As such, n designates the number of individuals in each group, and P designates the significance probability.

[2] = system: 4T1 mouse breast cancer cells; test: Survival rate in the 4T1 lung metastasis model; type: in vivo, female BALB/c mice; details: FIG. 3
Method: Whether the metastasis of cancer cells was inhibited by the peptide of Example 1 was evaluated experimentally. Specifically, in order to evaluate the inhibitory effect of the peptide of Example 1 on the metastasis of cancer cells, testing was performed using a lung metastasis model with 4T1 mouse breast cancer cells (ATCC CRL-2539, USA). The peptide of Example 1 was injected into the caudal vein of the tail of female BALB/c mice (SPF, SLC/Japan). The test group was divided into three groups according to the administration concentration; low concentration [40/2 g/head], middle concentration [80/2 g/head], and high concentration 1120, ug/headl. The negative control group was treated in the same manner as the test group, with the exception that the peptide of Example 1 was not administered. […] The weight of the mouse was measured two times a week, and an autopsy was performed on the 21st day after the injection of cancer cells. The lung tissue was excised, stained with a Bouin's solution, and fixed, and then the number of metastatic tumor nodules was counted. […]
The anticancer effect of the peptide of Example 1 was evaluated experimentally. Specifically, in order to evaluate the effect of the peptide of Example 1 on surviving individuals suffering from cancer, the survival rate was measured using an animal model prepared in the same manner as in Example 3. […]

[3] = system: B16-BL6 mouse melanoma cells; test: Survival rate in animal model with B16-BL6 melanoma cells; type: in vivo, male C57BL/6J mice; details: FIG. 4
Method: The anticancer effect of the peptide of Example 1 was evaluated experimentally. Specifically, in order to evaluate the effect of the peptide of Example 1 on surviving individuals suffering from cancer, the survival rate was measured using an animal model with B16-BL6 mouse melanoma cells (Korean Cell Line Bank, Korea).
B16-BL6 cells {1×10^5 cells/head} were subcutaneously injected into 7-week-old male C57BL/6J mice (Orientbio Inc., Korea). After one week, the peptide of Example 1 was intraperitoneally administered. The test group was divided into three groups according to the administration concentration; low concentration {40, ttg/head}, middle concentration {80, ttg/head}, and high concentration {120, ttg/head}. The negative control group was treated in the same manner as the test group, with the exception that the peptide of Example 1 was not administered. The administration was repeated two times a week for two weeks from the first administration day and then once a week for an additional four weeks, and the peptide was administered a total of eight times. To measure the survival rate, the survival rate for each group was observed and recorded. In the graph of FIG. 4, showing the survival rate, the x-axis represents the number of days since injection of the cancer cells, and the y-axis represents the survival rate (%). […]

[4] = system: SNU-790 thyroid cancer cells; test: Transwell invasion assay (TGF-beta1-induced invasion of cancer cells); type: cell-based; details: invasion increased by 10 ng/ml TGF-beta1; peptide at 40 and 100 [1M; 2 days culture; FIG. 1
Method: Whether the invasion of cancer cells was inhibited by the peptide of Example 1 was evaluated experimentally. Specifically, in order to evaluate the effect of the peptide of Example 1 on inhibiting the invasion of cancer cells, a Transwell invasion assay was performed. Growth factor reduced Matrigel (BD Biosciences, Franklin Lakes, N.J., USA) was diluted at 1:1 with a medium [RPMI 1640 medium (Welgene Inc., Korea)] and 70 fek thereof was added to the top chamber of the Transwell insert (Corning cat#3422, Tewksbury Mass., USA), followed by a coating process for 1 hr in a CO2 incubator at 37° C. 500 fek of a medium [RPMI 1640 medium (Welgene Inc., Korea)] containing 10% fetal bovine serum (FBS, Cellgro cat#35-015-CV, USA) was added to the bottom chamber, after which the test group was added with 10 ng/ml of TGF-betal (PromoKine, Germany). The coated top chamber was mounted to the bottom chamber, and 100 ick of RPMI 1640 medium containing 0.5% FBS with 20000 SNU-790 thyroid cancer cells (Korean Cell Line Bank) was added to the top chamber. In this way, a negative control group and two test groups were prepared. […]
The test groups, the control group, and the negative control group were cultured in a CO2 incubator for 2 days at 37° C. […] Four randomly selected regions were photographed and the number of cells in these regions was counted, averaged and graphed. […]

[5] = low, middle and high concentration groups compared

Substance: QLHLD [Example 1]
- number of tumor nodules (lung) ([1]; high concentration (120 ug/head)): significantly (P<0.001) reduced
- inhibitory effect of cancer metastasis, comparison among dose groups [1, 5]: highest in the test group in which the peptide was administered at the middle concentration
- number of tumor nodules (lung) ([1]; middle concentration [80/2 g/head]): significantly (P<0.001) reduced
- survival rate, comparison among dose groups [2, 5]: highest in the test group in which the peptide was administered at the middle concentration
- survival rate ([2]; middle and high concentrations, caudal vein, vs negative control): some individuals survived even after the death of the negative control group
- survival rate, comparison among dose groups [3, 5]: highest in the test group in which the peptide was administered at the middle concentration
- survival rate ([3]; test groups (low 40, middle 80, high 120 ttg/head), intraperitoneal, eight administrations, vs negative control): some individuals survived even after the death of the negative control group
- invasion of cancer cells (number of invading cells) [4]: inhibited in a concentration-dependent manner
